PMC7751394, “Succinic acid inhibits the activity of cytochrome P450 (CYP450) enzymes” (Pharmaceutical Biology, 2020)

What was measured:
CYP3A4 [1] = target: T1, CYP3A4 (Homo sapiens, UniProt P08684); test: biochemical
Experimental: (§1) All incubations were performed in triplicate, and the mean values were utilized. The typical incubation systems contained 100 mM potassium phosphate buffer (pH 7.4), NADPH generating system (1 mM NADP^+, 10 mM glucose-6-phosphate, 1 U/mL of glucose-6-phosphate dehydrogenase, and 4 mM MgCl2), the appropriate concentration of HLMs, a corresponding probe substrate and hispidulin (or positive inhibitor for different probe reactions) in a final volume of 200 μL.
(§2) The concentration of succinic acid was 100 μM, and the positive inhibitor concentrations were as follows: 10 μM furafylline for CYP1A2, 1 μM ketoconazole for CYP3A4, 10 μM tranylcypromine for CYP2A6, 50 μM clomethiazole for CYP2E1, 10 μM quinidine for CYP2D6, 10 μM sulfaphenazole for CYP2C9, 50 μM tranylcypromine for CYP2C19, 5 μM montelukast for CYP2C8. Probe substrates, positive inhibitors (except for dextromethorphan and quinidine, which were dissolved in water), and succinic acid were dissolved in methanol, with a final concentration of 1% (v/v), and 1% neat methanol was added to the incubations without inhibitor. There was a 3 min preincubation period (at 37 °C) before the reaction was initiated by adding an NADPH-generating system. The reaction was terminated by adding a 100 μL acetonitrile (10% trichloroacetic acid for CYP2A6) internal standard mix, and the solution was placed on ice. The mixture was centrifuged at 12,000 rpm for 10 min, and an aliquot (50 μL) of supernatant was transferred for HPLC analysis. The instrument used in this study was Agilent 1260 series instrument with DAD and FLD detector, and the quantitative assay for the corresponding metabolites was performed as previously reported (Lang et al. [2017]; Zhang et al. [2017]).
(§3) Succinic acid (100 μM) was used to initially screen for its direct inhibitory effects towards different human CYP isoforms. […] Ki values were obtained by incubating various concentrations of different probe substrates (20–100 μM testosterone, 10–50 μM dextromethorphan, 5–20 μM diclofenac) in the presence of 0–50 μM succinic acid.
(§4) The enzyme kinetic parameters for the probe reaction were estimated from the best fit line, using least-squares linear regression of the inverse substrate concentration versus the inverse velocity (Lineweaver-Burk plots), and the mean values were used to calculate Vmax and Km. Inhibition data from the experiments that were conducted using multiple compound concentrations were represented by Dixon plots, and inhibition constant (Ki) values were calculated using non-linear regression according to the following equation: v=(VmaxS)/(Km(1+I/Ki)+S), where I is the concentration of the compound, Ki is the inhibition constant, S is the concentration of the substrate, and Km is the substrate concentration at half the maximum velocity (Vmax) of the reaction. The mechanism of the inhibition was inspected using the Lineweaver-Burk plots and the enzyme inhibition models. The data comparison was performed using Student’s t-test and performed using IBM SPSS statistics 20 (SPSS Inc.).

CYP2C9 [2] = target: T2, CYP2C9 (Homo sapiens, UniProt P11712); test: biochemical
T2 sequence (P11712 whole entry): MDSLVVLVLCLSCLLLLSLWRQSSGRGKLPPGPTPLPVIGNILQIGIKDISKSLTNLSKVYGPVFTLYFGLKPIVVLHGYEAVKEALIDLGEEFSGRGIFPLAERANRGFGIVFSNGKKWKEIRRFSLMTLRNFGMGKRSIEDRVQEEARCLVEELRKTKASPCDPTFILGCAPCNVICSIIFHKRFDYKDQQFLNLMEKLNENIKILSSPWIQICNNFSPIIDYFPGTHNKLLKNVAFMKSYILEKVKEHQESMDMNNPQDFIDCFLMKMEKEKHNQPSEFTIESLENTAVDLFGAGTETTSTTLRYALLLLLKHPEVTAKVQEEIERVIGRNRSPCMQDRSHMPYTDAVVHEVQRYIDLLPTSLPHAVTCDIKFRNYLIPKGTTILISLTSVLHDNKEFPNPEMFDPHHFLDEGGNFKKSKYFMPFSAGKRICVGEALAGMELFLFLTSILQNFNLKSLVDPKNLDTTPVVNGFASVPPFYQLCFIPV
Experimental: as §1, §2, §3, §4

CYP2D6 [3] = target: T3, CYP2D6 (Homo sapiens, UniProt P10635); test: biochemical
T3 sequence (P10635 whole entry): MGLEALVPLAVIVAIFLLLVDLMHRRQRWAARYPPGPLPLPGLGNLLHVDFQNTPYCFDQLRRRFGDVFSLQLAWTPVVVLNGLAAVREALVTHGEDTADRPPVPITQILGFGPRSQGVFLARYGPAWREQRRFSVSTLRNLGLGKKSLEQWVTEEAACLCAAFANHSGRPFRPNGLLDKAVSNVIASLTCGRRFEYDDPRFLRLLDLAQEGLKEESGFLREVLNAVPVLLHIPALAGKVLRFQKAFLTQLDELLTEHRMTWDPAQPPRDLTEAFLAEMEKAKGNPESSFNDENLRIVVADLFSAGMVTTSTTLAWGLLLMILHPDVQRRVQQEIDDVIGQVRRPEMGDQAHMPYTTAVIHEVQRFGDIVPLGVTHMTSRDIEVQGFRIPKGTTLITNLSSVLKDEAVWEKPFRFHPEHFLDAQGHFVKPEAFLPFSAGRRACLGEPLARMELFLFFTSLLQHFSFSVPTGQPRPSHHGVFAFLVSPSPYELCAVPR
Experimental: as §1, §2, §3, §4

CYP3A4 [4] = target: T1, CYP3A4
Experimental: (§5) To determine whether succinic acid could inhibit the activity of CYP3A4, 2D6, and 2C9 in a time-dependent manner, succinic acid (20 μM) was pre-incubated with HLMs (1 mg/mL) in the presence of an NADPH-generating system for 30 min at 37 °C. After incubation, an aliquot (20 μL) was transferred to another incubation tube (final volume 200 μL) containing an NADPH-generating system and probe substrates whose final concentrations were approximate to Km. Then, further incubations were performed to measure the residual activity. After being incubated for 0, 5, 10, 15, and 30 min, the reactions were terminated by adding a 100 μL acetonitrile internal standard mix and then placed on ice; the corresponding metabolites were determined by HPLC.
To determine the KI and Kinact values for the inactivation of CYP3A4, the incubations were conducted using higher probe substrate concentrations (approximately 4-fold Km values) and various concentrations of succinic acid (0–50 μM) after different preincubation times (0–30 min), with a two-step incubation scheme, as described above.

CYP2C9 [5] = target: T2, CYP2C9; settings: succinic acid 20 μM, 0–30 min
Experimental: as §5

CYP2D6 [6] = target: T3, CYP2D6; settings: succinic acid 20 μM, 0–30 min
Experimental: as §5

T1 sequence (P08684 whole entry): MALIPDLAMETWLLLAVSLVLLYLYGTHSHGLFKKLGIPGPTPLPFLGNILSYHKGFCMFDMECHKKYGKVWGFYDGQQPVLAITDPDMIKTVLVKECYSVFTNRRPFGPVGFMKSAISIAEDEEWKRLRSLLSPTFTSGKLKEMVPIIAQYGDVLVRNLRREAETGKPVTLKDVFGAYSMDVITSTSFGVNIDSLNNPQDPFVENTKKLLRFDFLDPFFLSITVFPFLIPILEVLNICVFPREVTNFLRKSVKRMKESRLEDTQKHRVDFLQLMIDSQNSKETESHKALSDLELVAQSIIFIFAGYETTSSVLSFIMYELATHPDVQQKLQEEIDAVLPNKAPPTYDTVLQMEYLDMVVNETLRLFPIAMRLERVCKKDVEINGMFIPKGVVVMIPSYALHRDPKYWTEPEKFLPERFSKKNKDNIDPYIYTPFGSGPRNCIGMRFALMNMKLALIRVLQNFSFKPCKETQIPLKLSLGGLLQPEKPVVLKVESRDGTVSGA

IC50 (CYP3A4 [1]): 12.8 µM
Ki (CYP3A4 [1]): 6.18 µM
inhibition model CYP3A4 (Lineweaver-Burk plots) (CYP3A4 [1]; pooled HLM): non-competitive
IC50 (CYP2C9 [2]): 19.6 µM
Ki (CYP2C9 [2]): 9.48 µM
inhibition model CYP2C9 (Lineweaver-Burk plots) (CYP2C9 [2]; pooled HLM): competitive
IC50 (CYP2D6 [3]): 14.5 µM
Ki (CYP2D6 [3]): 7.4 µM
inhibition model CYP2D6 (Lineweaver-Burk plots) (CYP2D6 [3]; microsomes): competitive
time dependence of CYP3A4 inhibition (CYP3A4 [4]; succinic acid 20 μM, 0–30 min): time-dependent
activity of CYP3A4 (decreased to) after incubating (CYP3A4 [4]; succinic acid 20 μM, 30 min incubation, HLMs with NADPH): 26.65%
CYP3A4 inactivated by succinic acid (CYP3A4 [4]; suggested from Kinact): about 5.1%
effect of incubation time on CYP2C9 activity (CYP2C9 [5]): not affected by the incubation time
effect of incubation time on CYP2D6 activity (CYP2D6 [6]): not affected by the incubation time
SMILES: O=C(O)CCC(=O)O [succinic acid, Succinic acid]
